Columns and labels:
Type in all cases: in vivo
rapeseed [1] = experiment: Test Example 5: effect on crop by foliage application, plastic box (symbol g); settings: 320 g/ha, 3 weeks after application
How it was run: (§1)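 Crop seed is sown alongside grass and broadleaf weed species in spots in sterilized diluvial soil, then covered to a depth of about 1.5 cm. Plants grow in a greenhouse kept at 25° C. to 30° C.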

Monochoria vaginalis = experiment: Test Example 1: herbicidal activity, application before weed generation in submerged conditions (symbol C); settings: application herbicide amount 320 g/ha
How it was run: (§2)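 Flooded alluvial soil (4 cm water) was mixed-sown with the three weed species, and 2.5-leaf rice seedlings were transplanted. On sowing day, a water-diluted emulsion at a predetermined rate was applied to the water surface. After 3 weeks in a 25–30 °C greenhouse, effect was scored 0–5.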

Scirpus juncoides = experiment: Test Example 1: herbicidal activity, application before weed generation in submerged conditions (symbol B); settings: application herbicide amount 320 g/ha
How it was run: as §2

Leptochloa chinensis = experiment: Test Example 3: herbicidal effect by foliage application, Wagner pot (symbol D); settings: application herbicide amount 320 g/ha
How it was run: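 Alluvial soil was flooded to a depth of 0.1–0.5 cm, seeded with the weeds and rice, and kept in a greenhouse at 25–30 °C. After 14 days of growth, the foliage received a small-sprayer application of emulsion diluted to the intended rate; injury was rated at 3 weeks.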

Apera spica-venti = experiment: Test Example 4: herbicidal effect by soil treatment (symbol L); settings: application herbicide amount 320 g/ha
How it was run: (§3)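 Seeds were sown in sterilized diluvial soil, covered with about 1.5 cm of soil, and the soil surface was sprayed with a water-diluted emulsion of the compound at a predetermined rate. Plants grew in a greenhouse at 25° C. to 30° C.; effects were scored visually 3 weeks after application.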

Stellaria media [2] = experiment: Test Example 5: herbicidal effect by foliage application, plastic box (symbol P); settings: 320 g/ha, 3 weeks after application
How it was run: (§4)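 Seeds were sown in sterilized diluvial soil, covered with about 1.5 cm of soil and grown 14 days in a greenhouse at 25° C. to 30° C. An emulsifiable formulation diluted in water to a set rate was sprayed over foliage, and injury was scored 3 weeks later.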

Stellaria media [3] = experiment: Test Example 4: herbicidal effect by soil treatment (symbol P); settings: application herbicide amount 320 g/ha
How it was run: as §3

Amaranthus retroflexus = experiment: Test Example 4: herbicidal effect by soil treatment (symbol N); settings: application herbicide amount 320 g/ha
How it was run: as §3

Alopecurus myosuroides = experiment: Test Example 5: herbicidal effect by foliage application, plastic box (symbol J); settings: 320 g/ha, 3 weeks after application
How it was run: as §4

Lolium multiflorum Lam. = experiment: Test Example 4: herbicidal effect by soil treatment (symbol K); settings: application herbicide amount 320 g/ha
How it was run: as §3

Galium spurium = experiment: Test Example 4: herbicidal effect by soil treatment (symbol Q); settings: application herbicide amount 320 g/ha
How it was run: as §3

Setaria viridis [4] = experiment: Test Example 5: herbicidal effect by foliage application, plastic box (symbol G); settings: 320 g/ha, 3 weeks after application
How it was run: as §4

Setaria viridis [5] = experiment: Test Example 4: herbicidal effect by soil treatment (symbol G); settings: application herbicide amount 320 g/ha
How it was run: as §3

corn = experiment: Test Example 4: effect on crop by soil treatment (symbol c); settings: application herbicide amount 320 g/ha
How it was run: (§5)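 Seeds were sown in spots on sterilized diluvial soil in a plastic box and covered with about 1.5 cm of soil. Plants were then grown in a greenhouse at 25° C. to 30° C.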

rapeseed [6] = experiment: Test Example 4: effect on crop by soil treatment (symbol g); settings: application herbicide amount 320 g/ha
How it was run: as §5

wheat = experiment: Test Example 5: effect on crop by foliage application, plastic box (symbol e); settings: 320 g/ha, 3 weeks after application
How it was run: as §1

[7] = system: Echinochloa crus-galli var. crus-galli; experiment: Test Example 5: herbicidal effect by foliage application, plastic box (symbol H); settings: 320 g/ha, 3 weeks after application
How it was run: as §4

[8] = system: Echinochloa crus-galli var. crus-galli; experiment: Test Example 4: herbicidal effect by soil treatment (symbol H); settings: application herbicide amount 320 g/ha
How it was run: as §3

Row | Structure (SMILES) | g: rapeseed, effect on crop grade (rapeseed [1]) | Herbicidal effect grade, C: Monochoria vaginalis (Monochoria vaginalis) | Herbicidal effect grade, B: Scirpus juncoides (Scirpus juncoides) | herbicidal effect on D (Leptochloa chinensis), grade 0-5 (Leptochloa chinensis) | L (Apera spica-venti) herbicidal effect grade (Apera spica-venti) | P: Stellaria media, herbicidal effect grade (Stellaria media [2]) | P (Stellaria media) herbicidal effect grade (Stellaria media [3]) | N (Amaranthus retroflexus) herbicidal effect grade (Amaranthus retroflexus) | J: Alopecurus myosuroides, herbicidal effect grade (Alopecurus myosuroides) | K (Lolium multiflorum Lam.) herbicidal effect grade (Lolium multiflorum Lam.) | Q (Galium spurium) herbicidal effect grade (Galium spurium) | G: Setaria viridis, herbicidal effect grade (Setaria viridis [4]) | G (Setaria viridis) herbicidal effect grade (Setaria viridis [5]) | c (corn) effect on crop grade (corn) | g (rapeseed) effect on crop grade (rapeseed [6]) | e: wheat, effect on crop grade (wheat) | H: Echinochloa crus-galli var. crus-galli, herbicidal effect grade [7] | H (Echinochloa crus-galli var. crus-galli) herbicidal effect grade [8] | g: rapeseed, effect on crop (criteria of Test Example 1) (rapeseed [1]) | Herbicidal effect grade, L: Apera spica-venti (Apera spica-venti) | also measured
1 | CON=C(C)CC1CC(OC(=O)C(C)(C)Oc2ccc(Cl)cc2)=C(c2c(C)cc(C)cc2C)C1=O (centres unmarked) [1-051] | 4 (Herbicidal ratio of 70% or higher and lower than 90%) | 0 (Herbicidal ratio of 5% or lower (almost no effect)) | 5 (Herbicidal ratio of 90% or more (almost completely withered)) | 5 (Herbicidal ratio of 90% or more (almost completely withered)) | 5 (Herbicidal ratio of 90% or more (almost completely withered)) | 3 (Herbicidal ratio of 40% or higher and lower than 70%) | 0 (Herbicidal ratio of 5% or lower (almost no effect)) | 4 (Herbicidal ratio of 70% or higher and lower than 90%) | 5 (Herbicidal ratio of 90% or more (almost completely withered)) | 5 (Herbicidal ratio of 90% or more (almost completely withered)) | 0 (Herbicidal ratio of 5% or lower (almost no effect)) | 5 (Herbicidal ratio of 90% or more (almost completely withered)) | 5 (Herbicidal ratio of 90% or more (almost completely withered)) | 4 (Herbicidal ratio of 70% or higher and lower than 90%) | 4 (Herbicidal ratio of 70% or higher and lower than 90%) | 5 (Herbicidal ratio of 90% or more (almost completely withered)) | 5 (Herbicidal ratio of 90% or more (almost completely withered)) | 5 (Herbicidal ratio of 90% or more (almost completely withered)) |  |  | 
2 | CCC(C)C(CC1CC(O)=C(c2c(C)cc(C)cc2C)C1=O)=NOC (centres unmarked) [1-066] | 3 (Herbicidal ratio of 40% or higher and lower than 70%) | 0 (Herbicidal ratio of 5% or lower (almost no effect)) | 0 (Herbicidal ratio of 5% or lower (almost no effect)) | 2 (Herbicidal ratio of 20% or higher and lower than 40%) | 5 (Herbicidal ratio of 90% or more (almost completely withered)) | 0 (Herbicidal ratio of 5% or lower (almost no effect)) | 0 (Herbicidal ratio of 5% or lower (almost no effect)) | 0 (Herbicidal ratio of 5% or lower (almost no effect)) | 5 (Herbicidal ratio of 90% or more (almost completely withered)) | 5 (Herbicidal ratio of 90% or more (almost completely withered)) | 0 (Herbicidal ratio of 5% or lower (almost no effect)) | 5 (Herbicidal ratio of 90% or more (almost completely withered)) | 4 (Herbicidal ratio of 70% or higher and lower than 90%) | 4 (Herbicidal ratio of 70% or higher and lower than 90%) | 0 (Herbicidal ratio of 5% or lower (almost no effect)) | 0 (Herbicidal ratio of 5% or lower (almost no effect)) | 5 (Herbicidal ratio of 90% or more (almost completely withered)) | 5 (Herbicidal ratio of 90% or more (almost completely withered)) |  |  | 
3 | CC(=O)CC1CC(O)=C(c2c(C)cc(Oc3ccccc3)cc2C)C1=O (centres unmarked) [7-014] |  |  |  | 5 (Herbicidal ratio of 90% or more (almost completely withered)) |  |  |  |  |  |  |  |  |  |  |  |  |  |  | 1 (Herbicidal ratio of 5% or higher and lower than 20%) | 0 (Herbicidal ratio of 5% or lower (almost no effect)) | P: Stellaria media, herbicidal effect (criteria of Test Example 1) (Stellaria media [2]): 0 (Herbicidal ratio of 5% or lower (almost no effect)); Herbicidal effect grade, P: Stellaria media (Stellaria media [3]): 0 (Herbicidal ratio of 5% or lower (almost no effect)); Herbicidal effect grade, N: Amaranthus retroflexus (Amaranthus retroflexus): 0 (Herbicidal ratio of 5% or lower (almost no effect)); J: Alopecurus myosuroides, herbicidal effect (criteria of Test Example 1) (Alopecurus myosuroides): 0 (Herbicidal ratio of 5% or lower (almost no effect)); Herbicidal effect grade, K: Lolium multiflorum Lam. (Lolium multiflorum Lam.): 3 (Herbicidal ratio of 40% or higher and lower than 70%); Herbicidal effect grade, Q: Galium spurium (Galium spurium): 0 (Herbicidal ratio of 5% or lower (almost no effect)); G: Setaria viridis, herbicidal effect (criteria of Test Example 1) (Setaria viridis [4]): 0 (Herbicidal ratio of 5% or lower (almost no effect)); Herbicidal effect grade, G: Setaria viridis (Setaria viridis [5]): 2 (Herbicidal ratio of 20% or higher and lower than 40%); Effect on crop grade, c: corn (corn): 0 (Herbicidal ratio of 5% or lower (almost no effect)); Effect on crop grade, g: rapeseed (rapeseed [6]): 0 (Herbicidal ratio of 5% or lower (almost no effect)); e: wheat, effect on crop (criteria of Test Example 1) (wheat): 0 (Herbicidal ratio of 5% or lower (almost no effect)); H: Echinochloa crus-galli var. crus-galli, herbicidal effect (criteria of Test Example 1) [7]: 5 (Herbicidal ratio of 90% or more (almost completely withered)); Herbicidal effect grade, H: Echinochloa crus-galli var. crus-galli [8]: 0 (Herbicidal ratio of 5% or lower (almost no effect))
4 | CC(=O)CC1CC(O)=C(c2c(C)cc(-c3ncccn3)cc2C)C1=O (centres unmarked) [7-017] |  |  |  | 5 (Herbicidal ratio of 90% or more (almost completely withered)) |  |  |  |  |  |  |  |  |  |  |  |  |  |  | 0 (Herbicidal ratio of 5% or lower (almost no effect)) | 0 (Herbicidal ratio of 5% or lower (almost no effect)) | P: Stellaria media, herbicidal effect (criteria of Test Example 1) (Stellaria media [2]): 0 (Herbicidal ratio of 5% or lower (almost no effect)); Herbicidal effect grade, P: Stellaria media (Stellaria media [3]): 0 (Herbicidal ratio of 5% or lower (almost no effect)); Herbicidal effect grade, N: Amaranthus retroflexus (Amaranthus retroflexus): 0 (Herbicidal ratio of 5% or lower (almost no effect)); J: Alopecurus myosuroides, herbicidal effect (criteria of Test Example 1) (Alopecurus myosuroides): 2 (Herbicidal ratio of 20% or higher and lower than 40%); Herbicidal effect grade, K: Lolium multiflorum Lam. (Lolium multiflorum Lam.): 0 (Herbicidal ratio of 5% or lower (almost no effect)); Herbicidal effect grade, Q: Galium spurium (Galium spurium): 0 (Herbicidal ratio of 5% or lower (almost no effect)); G: Setaria viridis, herbicidal effect (criteria of Test Example 1) (Setaria viridis [4]): 5 (Herbicidal ratio of 90% or more (almost completely withered)); Herbicidal effect grade, G: Setaria viridis (Setaria viridis [5]): 0 (Herbicidal ratio of 5% or lower (almost no effect)); Effect on crop grade, c: corn (corn): 0 (Herbicidal ratio of 5% or lower (almost no effect)); Effect on crop grade, g: rapeseed (rapeseed [6]): 0 (Herbicidal ratio of 5% or lower (almost no effect)); e: wheat, effect on crop (criteria of Test Example 1) (wheat): 0 (Herbicidal ratio of 5% or lower (almost no effect)); H: Echinochloa crus-galli var. crus-galli, herbicidal effect (criteria of Test Example 1) [7]: 5 (Herbicidal ratio of 90% or more (almost completely withered)); Herbicidal effect grade, H: Echinochloa crus-galli var. crus-galli [8]: 0 (Herbicidal ratio of 5% or lower (almost no effect))
